Measured values reported in patent publication US10456414B2, “Methods for treating HCV” (priority 2011, dated 2019).
Values joined by “and” are separate entries in the source; they are usually repeats but may differ in a detail not shown here. Equal values may be shown once. Read-outs that look alike come from different tables or passages of the source. Marks after values point to notes of the source that are not given here.

Key:
[1] = system: Huh-7 cells carrying a HCV genotype 1a replicon; experiment: Cytotoxicity combination studies with Compound 4, MacSynergy II; conditions: for Antagonism Volume (cytotoxicity) / Synergy Volume (cytotoxicity): in combination with Compound 4, mean ± standard deviation
HCV genotype 1a replicon [2] = experiment: Antiviral combination studies with Compound 4, MacSynergy II; conditions: for Interaction: in combination with Compound 4; for Antagonism Volume / Synergy Volume: in combination with Compound 4, mean ± standard deviation
[3] = system: 1b Huh-luc replicon cells; experiment: Antiviral combination studies with Compound 5, MacSynergy II; type: cell-based, HCV; conditions: for Interaction: in combination with Compound 5; for Antagonism Volume / Synergy Volume: in combination with Compound 5, mean ± standard deviation
Procedure: Combination data were analyzed based on the Bliss Independence model using MacSynergy II software. Results of the combination assays were expressed as mean synergy and antagonism volumes (nM^2) calculated at 95% confidence from two independent experiments performed in triplicate.

[4] = system: Huh-7 cells carrying a HCV genotype 1a replicon; experiment: HCV genotype 1a replicon assay, CC50 by calcein AM (Biological Example 3); type: cell-based; conditions: genotype 1a replicon cells, 3 days
Procedure: The CC50 assay was performed first.

HCV genotype 1a replicon [5] = experiment: HCV genotype 1a replicon assay, EC50 (Biological Example 3); type: cell-based; conditions: 3 days
[6] = system: HCV 1b replicon system (Huh-luc); experiment: Antiviral combination studies with Compound 6, MacSynergy II; conditions: for Interaction: in combination with Compound 6; for Antagonism Volume / Synergy Volume: in combination with Compound 6, mean ± standard deviation
[7] = HCV genotype 1a replicon assay, CC50 by calcein AM (Biological Example 8); conditions: human, Huh-7 cells carrying an HCV genotype 1a replicon
[8] = system: GT2b wild-type chimeric replicon (2b NS5B in GT1b backbone); experiment: microbe, parasite or virus in culture; type: cell-based, HCV; conditions: Hepatitis C virus, 72 h, read-out: EC50 WT
[9] = system: GT3a NS5B S282T mutant chimeric replicon; experiment: microbe, parasite or virus in culture; type: cell-based, HCV; conditions: Hepatitis C virus, GT3A, 72 h, read-out: EC50 S282T
[10] = human, dose of 800 mg/day; cited from earlier work
[11] = system: GT4a wild-type chimeric replicon (4a NS5B in GT1b backbone); experiment: microbe, parasite or virus in culture; type: cell-based, HCV; conditions: Hepatitis C virus, 72 h, read-out: EC50 WT
GT2a wild-type replicon = experiment: microbe, parasite or virus in culture; type: cell-based, HCV; conditions: Hepatitis C virus, 72 h, 3 days
[12] = system: GT4a NS5B S282T mutant chimeric replicon; experiment: microbe, parasite or virus in culture; type: cell-based, HCV; conditions: Hepatitis C virus, GT4A, 72 h, read-out: EC50 S282T
[13] = system: Huh-7 cells carrying an HCV genotype 1a replicon
HCV genotype 1a replicon [14] = experiment: HCV genotype 1a replicon assay, EC50 (Biological Example 8); conditions: Hepatitis C virus, 72 h
[15] = system: GT3a wild-type chimeric replicon (3a NS5B in GT1b backbone); experiment: microbe, parasite or virus in culture; type: cell-based, HCV; conditions: Hepatitis C virus, 72 h, read-out: EC50 WT
[16] = system: GT1b NS5B S282T mutant replicon; experiment: microbe, parasite or virus in culture; type: cell-based, HCV; conditions: Hepatitis C virus, GT1B, 72 h, read-out: EC50 S282T
GT1b wild-type replicon = experiment: microbe, parasite or virus in culture; type: cell-based, HCV; conditions: Hepatitis C virus, 72 h, 3 days
[17] = system: GT2a NS5B S282T mutant replicon; experiment: microbe, parasite or virus in culture; type: cell-based, HCV; conditions: Hepatitis C virus, GT2A, 72 h, read-out: EC50 S282T
[18] = system: GT2b NS5B S282T mutant chimeric replicon; experiment: microbe, parasite or virus in culture; type: cell-based, HCV; conditions: Hepatitis C virus, GT2B, 72 h, read-out: EC50 S282T
HCV genotype 1a replicon [19] = experiment: Antiviral combination studies with Compound 10, MacSynergy II; conditions: in combination with Compound 10
[20] = Drug-drug interactions of co-administered compounds (exposure); type: in vivo
Procedure: With respect to Compounds 9 and 10, or pharmaceutically acceptable salts thereof, the composition may comprise 10 mg to 1000 mg per day (according to US 2010/0298257). With respect to Compound 11, or pharmaceutically acceptable salts thereof, the composition may comprise 1 mg to 1000 mg per day (according to US 2010/0081628).

[21] = system: Genotype 1 b replicon cells; experiment: Compound combination replicon cure assay, colony formation; conditions: 6 days treatment at the same concentrations, then G418 for 14 days
genotype 1b replicon RNA = experiment: Replicon RNA suppression, 6 day assay, QRT-PCR
[22] = Hepatitis C virus, 72 h, average ± standard deviation, read-out: EC50
[23] = single compound at the listed concentration, 6 days, relative to DMSO control (Table XIV)

Compound | Interaction (cytotoxicity) ([1]; in combination with Compound 4) | Antagonism Volume (cytotoxicity) [1] | Synergy Volume (cytotoxicity) [1] | Antagonism Volume (HCV genotype 1a replicon [2]) | Synergy Volume (HCV genotype 1a replicon [2]) | Antagonism Volume [3] | Synergy Volume [3] | CC50 ([4]; read-out: CC50) | EC50 (HCV genotype 1a replicon [5]; [22]) | Interaction [6] | Antagonism Volume [6] | Synergy Volume [6] | CC50 at 3 days [7] | other results
COc1ccc2c(O[C@@H]3C[C@H]4C(=O)N[C@]5(P(=O)(O)Cc6c(F)cccc6F)C[C@H]5CCCCCCC[C@H](NC(=O)OC5CCCC5)C(=O)N4C3)cc(-c3csc(NC(C)C)n3)nc2c1Cl [Compound 2, (2R,6S,13aR,14aS,16aS)-2-(8-chloro-2-(2-(isopropylamino)thiazol-4-yl)-7-methoxyquinolin-4-yloxy)-6-(cyclopentyloxycarbonylamino)-5,16-dioxooctadecahydrocyclopropa[e]pyrrolo[1,2-a][1,4]diazacyclopentadecin-14a-yl(2,6-diflurobenzyl)phosphinic acid] | Additivity (Additivity: ≤25 and >−25 nM^2%) | 0 ± 0 nM^2% | 17 ± 14 nM^2% | −2 ± 3 nM^2% | 22 ± 14 nM^2% | −7 ± 7 nM^2 | 22 ± 12 nM^2 | > 22200 nM | 496 ± 135 nM | Moderate Synergy | −0.7 ± 0.7 nM^2 | 52 nM^2 and 52 ± 5.1 nM^2 |  | Interaction (HCV genotype 1a replicon [2]): Additivity (Additivity: ≤25 and >−25 nM^2%); Interaction [3]: Additive
IFN-α | Additivity (Additivity: ≤25 and >−25 nM^2%) | −7 ± 13 nM^2% | 8 ± 12 nM^2% | 0 ± 0 nM^2% | 12 ± 6 nM^2% |  |  |  |  | Minor Synergy | 0.0 ± 0.0 nM^2 | 32 nM^2 and 32 ± 1.4 nM^2 |  | Interaction (HCV genotype 1a replicon [2]): Additivity (Additivity: ≤25 and >−25 nM^2%); CC50 ([4]; IFN-α in Units per milliliter): >50^b U/mL; EC50 (HCV genotype 1a replicon [5]; IFN-α in Units per milliliter): 1.4 ± 0.3^b U/mL
CC(C)C(=O)OCC1O[C@@H](n2ccc(N)nc2=O)[C@](C)(F)[C@@H]1OC(=O)C(C)C (stereo partly shown) [Compound 7] |  |  |  |  |  |  |  |  |  | Moderate Synergy | −0.2 ± 0.1 nM^2 | 51 nM^2 and 51 ± 7.8 nM^2 |  | 
NC(=O)c1ncn([C@@H]2O[C@H](CO)[C@@H](O)[C@H]2O)n1 [Ribavirin, 1-β-D-ribofuranosyl-1H-1,2,4-Triazole-3-carboxamide, reference compound] |  |  |  | −43 nM^2% and −43 ± 20 nM^2% | 1 ± 1 nM^2% | −12 ± 9 nM^2 | 12 ± 8 nM^2 | > 88800 nM | 36500 ± 17500 nM | Moderate Synergy | −0.5 ± 0.1 nM^2 | 61 nM^2 and 61 ± 0.5 nM^2 | > 88800 nM | EC50 [8]: 2.6 nM; EC50 [9]: 1 nM; steady-state plasma concentration [10]: 6 to 11 µM; EC50 [11]: 6.2 nM; EC50 (GT2a wild-type replicon): 8.3 nM; EC50 [12]: 0.6 nM; cell viability ([13]; combined with Compound 10, highest combined concentrations tested): greater than 85%; Interaction [3]: Additive; EC50 (HCV genotype 1a replicon [14]): 33600 nM; EC50 [15]: 6.7 nM; EC50 [16]: 1.6 nM; EC50 (GT1b wild-type replicon): 6.6 nM; EC50 [17]: 0.6 nM; EC50 [18]: 0.6 nM; Interaction (HCV genotype 1a replicon [19]): Minor
Fc1ccccc1-c1nc2ccn(Cc3ccc(-c4ccc(C(F)(F)F)cc4C(F)(F)F)nn3)cc-2n1 [Compound 1, 5-((6-(2,4-bis(trifluoromethyl)phenyl)pyridazin-3-yl)methyl)-2-(2-fluorophenyl)-5H-imidazo[4,5-c]pyridine] | Additivity (Additivity: ≤25 and >−25 nM^2%) | 0 ± 1 nM^2% | 13 ± 11 nM^2% | −1 ± 2 nM^2% | 34 ± 26 nM^2% | 0 ± 0 nM^2 | 70 ± 26 nM^2 | > 44400 nM | 19 ± 8 nM |  | −17 ± 0.7 nM^2 | 34 nM^2 and 34 ± 9.9 nM^2 | > 44400 nM | increase of exposure of Compound 1 by Compound 2 ([20]; co-administered with Compound 2): 2-3 ×; effect on drug metabolizing systems ([20]; in vivo): does not appear that Compound 1 affects drug metabolizing systems; Uncured colony number [21]: 657; Replicon RNA log drop (genotype 1b replicon RNA): −1.0 log; Replicon RNA log drop (genotype 1b replicon RNA; [23]): −1.0 log
CC(C)OC(=O)[C@H](C)N[P@](=O)(OC[C@H]1O[C@@](C#N)(c2ccc3c(N)ncnn23)[C@](C)(O)[C@@H]1OC(=O)C(C)C)Oc1ccccc1 [Compound 4] |  |  |  |  |  | −1 ± 3 nM^2 | 26 ± 28 nM^2 |  | 201 ± 74 nM |  |  |  |  | Interaction (cytotoxicity) ([1]; in combination with Ribavirin (Table IX)): Additivity (Additivity: ≤25 and >−25 nM^2%); Uncured colony number [21]: 1054; Compound concentration able to induce replicon RNA 1-1.5 log drop in a 6 day assay (genotype 1b replicon RNA; genotype 1b replicon cells, 6 days): 1000 nM; Replicon RNA log drop (genotype 1b replicon RNA; [23]): −1.2 log
CC1=CC[C@H](C(=O)N(c2cc(C#CC(C)(C)C)sc2C(=O)O)[C@H]2CC[C@](O)(CO[C@H]3CCOC3)CC2)CC1 [Compound 5, 5-(3,3-dimethylbut-1-yn-1-yl)-3-[(cis-4-hydroxy-4-{[(3S)-tetrahydrofuran-3-yloxy]methyl}cyclohexyl){[(1R)-4-methylcyclohex-3-en-1-yl]carbonyl}amino]thiophene-2-carboxylic acid] | Additivity (Additivity: ≤25 and >−25 nM^2%) | −10 ± 7 nM^2% | 15 ± 8 nM^2% | −1 ± 3 nM^2% | 26 ± 28 nM^2% |  |  | > 44400 nM | 15 ± 2.4 nM |  |  |  | > 44400 nM | Cytotoxicity at Highest Concentration of Compound Combinations (% inhibition on cell growth) ([13]; with 320 nM Compound 10 and the highest concentration of the listed compound): 4.3 ± 2.9%; EC50 (HCV genotype 1a replicon [14]): 14 nM; Interaction (HCV genotype 1a replicon [19]): Additive
